What follows are molecules tested on human RS virus A2 strain (assay: In vitro test for anti-RS virus proliferation inhibitory activity (quantitative RT-PCR of RS virus RNA copy number in infected Vero cells)). Conditions: 72 h; Vero cells infected with human RS virus A2 strain, 3 days of incubation, RS virus N gene RNA copy number by quantitative RT-PCR; read-out: Anti-RS virus Activity.
Assay type: cell-based
Experimental: A mixture of Vero cells (3.4×10^5 cells/mL) and human RS virus A2 strain (1.7×10^4 TCID50/mL) (EMEM medium supplemented with 10% FCS) was added to a 96-well plate at 50 μL/well, and the 10% FCS-supplemented EMEM medium adjusted to the desired final concentration of the compounds to be tested was added at 50 μL/well, followed by incubating the plate at 37° C. in the presence of 5% CO2 at 37° C. After 3 days of incubation, the supernatant was removed, the cells were washed with PBS(−), and the cell lysis buffer supplied with the SingleShot (registered trademark) Cell Lysis Kit (Bio-Rad) was added dropwise at 50 μL/well to lysis the cells thereby providing the cell lysate.
Human RS virus RNA copy number in the cell lysate was determined by quantitative RT-PCR using iTaq Universal SYBR Green One-Step Kit (Bio-Rad). Specifically, primers targeting human RS virus N gene (Rameix-Welti et al, Nat Commun5: 5104, 2014. doi: 10.1038/ncomms6104) was used to prepare the reaction solution according to the instructions provided with the kit, and a 96-well PikoReal Real-Time PCR System (TCR0096, Thermo Fisher Scientific) was used to detect PCR reaction and signal assay.
The copy number was calculated by the relative method using the comparative Ct method using compound-free virus-infected cells as controls.

Question: `CS(=O)(=O)N1CCCC[C@H]1c1nc(CCCc2ccccc2)no1` [Compound 2C, 3-(3-phenylpropyl)-5-[(2S)-1-methanesulfonylpiperidin-2-yl]-1,2,4-oxadiazole] was tested. Which IC50 did it give?
Answer: Its IC50 is 10 to 50 µM.

Question: Which IC50 does the source give for `CC(C)CS(=O)(=O)N1CCCC[C@H]1c1nc(CCCc2ccccc2)no1` [Compound 2A, 3-(3-phenylpropyl)-5-[(2S)-1-isobutylsulfonylpiperidin-2-yl]-1,2,4-oxadiazole] here?
Answer: Its IC50 is 10 to 50 µM.

Question: `O=S(=O)(c1ccccc1)N1CCC[C@H]1c1nc(CCCc2ccccc2)no1` [Compound 1D, 3-(3-phenylpropyl)-5-[(2S)-1-benzenesulfonylpyrrolidin-2-yl]-1,2,4-oxadiazole] was tested. Which IC50 did it give?
Answer: Its IC50 is 10 to 50 µM.

Question: `O=C(c1ccc2cc(C(=O)N3C[C@H](O)C[C@H]3c3nc(CCCc4ccccc4)no3)ccc2c1)N1C[C@H](O)C[C@H]1c1nc(CCCc2ccccc2)no1` [Compound 4-6, Naphthalene-2,6-diylbis(((2S,4R)-4-hydroxy-2-(3-(3-phenylpropyl)-1,2,4-oxadiazol-5-yl)pyrrolidin-1-yl)methanone)] was tested. Which IC50 did it give?
Answer: The IC50 was greater than 50 µM.

Question: With `O=S(=O)(Cc1ccccc1)N1CCC[C@H]1c1nc(CCCc2ccccc2)no1` [Compound 1E, 3-(3-phenylpropyl)-5-[(2S)-1-benzylsulfonylpyrrolidin-2-yl]-1,2,4-oxadiazole] as the molecule, how does the IC50 read?
Answer: Its IC50 is 10 to 50 µM.

Same assay, conditions: 72 h; Vero cells infected with human RS virus A2 strain, 3 days of incubation, RS virus RNA copy number by quantitative RT-PCR; read-out: Anti-RS virus Activity

Question: Which IC50 does the source give for `O=S(=O)(C1CCOCC1)N1C[C@H](c2ccccc2)C[C@H]1c1nc(CCCc2ccccc2)no1` [Compound 7AP, 5-((2S,4S)-4-phenyl1-((tetrahydro-2H-pyran-4-yl)sulfonyl)pyrrolidin-2-yl)-3-(3-phenylpropyl)-1,2,4-oxadiazole] here?
Answer: Its IC50 is less than 10 µM.

Question: With `O=S(=O)(N1CCCC[C@H]1c1nc(CCCc2ccccc2)no1)C12CC3CC(CC(C3)C1)C2` [Compound 2AG, 5-((S)-1-((adamantan-1-yl)sulfonyl)piperidin-2-yl)-3-(3-phenylpropyl)-1,2,4-oxadiazole] as the molecule, how does the IC50 read?
Answer: The IC50 was 10 to 50 µM.

Question: `CC(C)(C)OC(=O)N1CCC(S(=O)(=O)N2CC(CC3CCC3)CC2c2nc(CCCc3ccccc3)no2)CC1` (stereo not shown) [Compound 6AO] was tested. Which IC50 did it give?
Answer: The IC50 was greater than 50 µM.

Question: Which IC50 does the source give for `O=S(=O)(C1CCCCC1)N1[C@@H]2CC[C@@H](C2)[C@H]1c1nnc(CCc2ccncc2)[nH]1` [Compound 29B, (1R,3S,4S)-2-(cyclohexylsulfonyl)-3-(5-(2-(pyridin-4-yl)ethyl)-4H-1,2,4-triazol-3-yl)-2-azabicyclo[2.2.1]heptane] here?
Answer: The IC50 was 10 to 50 µM.

Question: How did the IC50 turn out when `CC(C)NC(=O)N1CCCC[C@H]1c1nc(CCc2ccccc2)no1` [Compound 10G, (S)—N-isopropyl-2-(3-phenethyl-1,2,4-oxadiazol-5-yl) piperidine-1-carboxamide] was run?
Answer: The IC50 was greater than 50 µM.

Question: With `CC(C)(C)OC(=O)NCc1ccc(CCCc2noc([C@@H]3CCCCN3S(=O)(=O)C3CCCCC3)n2)cc1` [Compound 30B] as the molecule, how does the IC50 read?
Answer: The IC50 was 10 to 50 µM.

Question: Which IC50 does the source give for `CC(C)(C)OC(=O)N1CCCC[C@H]1c1nnc(CCc2ccccc2)o1` [Compound 17-1, Tert-butyl (S)-2-(5-phenethyl-1,3,4-oxadiazol-2-yl) piperidine-1-carboxylate] here?
Answer: Its IC50 is less than 10 µM.

Question: For `O=S(=O)(N1CCCCC1)N1CC(CC2CCC2)CC1c1nc(CCCc2ccccc2)no1` (stereo not shown) [Compound 6AD, 5-(4-(cyclobuthylmethyl)-1-(piperidin-1-ylsulfonyl)pyrrolidin-2-yl)-3-(3-phenylpropyl)-1,2,4-oxadiazole], which IC50 is on record?
Answer: The IC50 was 10 to 50 µM.

Question: `O=S(=O)(Cc1ccccc1)N1C[C@H](F)C[C@H]1c1nc(CCCc2ccccc2)no1` [Compound 8E, 3-(3-phenylpropyl)-5-[(2S,4R)-1-benzylsulfonyl-4-fluoropyrrolidin-2-yl]-1,2,4-oxadiazole] was tested. Which IC50 did it give?
Answer: The IC50 was less than 10 µM.

Question: How did the IC50 turn out when `CC(C)(C)OC(=O)N1C[C@H]2CC[C@]1(c1nc(CCc3ccncc3)no1)CC2` [Compound 13-1, Tert-butyl (1s,4s)-1-(3-(2-(pyridin-4-yl)ethyl)-1,2,4-oxadiazol-5-yl)-2-azabicyclo[2.2.2]octane-2-carboxylate] was run?
Answer: The IC50 was 10 to 50 µM.

Question: For `O=C(NCc1noc([C@@H]2C[C@@H](c3ccccc3)CN2S(=O)(=O)c2ccc(F)cc2)n1)c1cnc2ccccc2c1` [Compound 46AJ, N-((5-((2S,4S)-1-((4-fluorophenyl)sulfonyl)-4-phenylpyrrolidin-2-yl)-1,2,4-oxadiazol-3-yl)methyl)quinoline-3-carboxamide], which IC50 is on record?
Answer: The IC50 was 10 to 50 µM.

Question: `O=S(=O)(C1CCOCC1)N1CC2(CC2)C[C@H]1c1nc(CCCc2ccccc2)no1` [Compound 5AP, (S)-3-(3-phenylpropyl)-5-(5-((tetrahydro-2H-pyran-4-yl)sulfonyl)-5-azaspiro[2.4]heptan-6-yl)-1,2,4-oxadiazole] was tested. Which IC50 did it give?
Answer: The IC50 was 10 to 50 µM.

Question: Which IC50 does the source give for `CC(C)(C)NC(=O)N1CCC[C@H]1c1nc(CCCc2ccccc2)no1` [Compound 1H, (S)—N-(tert-butyl)-2-(3-(3-phenylpropyl)-1,2,4-oxadiazol-5-yl) pyrrolidine-1-carboxamide] here?
Answer: Its IC50 is greater than 50 µM.

Question: `CN(C)c1ccc(S(=O)(=O)N2CC3(CC3)C[C@H]2c2nc(CCCc3ccccc3)no2)cc1` [Compound 5AK, (S)-N,N-dimethyl-4-((6-(3-(3-phenylpropyl)-1,2,4-oxadiazole-5-yl)-5-azaspiro[2.4]heptan-5-yl)sulfonyl)aniline] was tested. Which IC50 did it give?
Answer: The IC50 was less than 10 µM.

Question: Which IC50 does the source give for `CC(C)CS(=O)(=O)N1CCCC[C@H]1c1nc(CCc2ccncc2)no1` [Compound 12A, (S)-5-(1-(Isobutylsulfonyl)piperidin-2-yl)-3-(2-(pyridin-4-yl)ethyl)-1,2,4-oxadiazole] here?
Answer: Its IC50 is less than 10 µM.

Question: With `CC(C)COC(=O)N1CCC[C@H]1c1nc(CCCc2ccccc2)no1` [Compound 1I, Isobutyl (S)-2-(3-(3-phenylpropyl)-1,2,4-oxadiazol-5-yl) pyrrolidine-1-carboxylate] as the molecule, how does the IC50 read?
Answer: Its IC50 is less than 10 µM.

Question: With `CC(C)(C)OC(=O)N1C[C@H]2CC[C@]1(c1nc(CCc3ccccc3)no1)CC2` [Compound 15-1, Tert-butyl (1s,4s)-1-(3-phenethyl-1,2,4-oxadiazol-5-yl)-2-azabicyclo[2.2.2]octane-2-carboxylate] as the molecule, how does the IC50 read?
Answer: Its IC50 is 10 to 50 µM.

Question: With `CC(C)(C)NC(=O)N1[C@@H]2CC[C@@H](C2)[C@H]1c1nnc(Cc2c[nH]c3ccccc23)[nH]1` [Compound 24H, (1R,3S,4S)-3-(5-((1H-indol-3-yl)methyl)-4H-1,2,4-triazol-3-yl)-N-(tert-butyl)-2-azabicyclo[2.2.1]heptane-2-carboxamide] as the molecule, how does the IC50 read?
Answer: Its IC50 is 10 to 50 µM.

Question: Which IC50 does the source give for `O=S(=O)(C1CCCCC1)N1CC(CC2CCC2)CC1c1nc(CCCc2ccccc2)no1` (stereo not shown) [Compound 6B, 3-(3-phenylpropyl)-5-(1-cyclohexylsulfonyl-4-cyclobutylmethylpyrrolidin-2-yl)-1,2,4-oxadiazole] here?
Answer: The IC50 was less than 10 µM.

Question: `O=C(OCc1ccccc1)N1CCC[C@H]1c1nc(CCCc2ccccc2)no1` [Compound 1J, Benzyl (S)-2-(3-(3-phenylpropyl)-1,2,4-oxadiazol-5-yl) pyrrolidine-1-carboxylate] was tested. Which IC50 did it give?
Answer: Its IC50 is less than 10 µM.

Question: Which IC50 does the source give for `CC(C)CC(=O)N1CCCC[C@H]1c1nc(CCCc2ccccc2)no1` [Compound 2Q, (S)-3-Methyl-1-(2-(3-(3-phenylpropyl)-1,2,4-oxadiazol-5-yl)piperidin-1-yl)butan-1-one] here?
Answer: Its IC50 is less than 10 µM.

Question: With `CC(C)CS(=O)(=O)N1CCCC[C@H]1c1nc(CCc2ccccc2)no1` [Compound 10A, 3-(2-phenylethyl)-5-[(2S)-1-isobutylsulfonylpiperidin-2-yl]-1,2,4-oxadiazole] as the molecule, how does the IC50 read?
Answer: Its IC50 is greater than 50 µM.

Question: `Fc1ccc(CN2CCC[C@H]2c2nc(CCCc3ccccc3)no2)cc1` [Compound 1V, (S)-5-(1-(4-fluorobenzyl)pyrrolidin-2-yl)-3-(3-phenylpropyl)-1,2,4-oxadiazole] was tested. Which IC50 did it give?
Answer: Its IC50 is less than 10 µM.

Question: How did the IC50 turn out when `Cc1oc([C@@H]2CCCCN2S(=O)(=O)C2CCCCC2)nc1C(=O)NCc1ccccc1` [Compound 34B, (S)—N-Benzyl-2-(1-(cyclohexylsulfonyl)piperidin-2-yl)-5-methyloxazole-4-carboxamide] was run?
Answer: The IC50 was 10 to 50 µM.

Question: For `c1ccc(CCCc2noc([C@@H]3CCCN3CC3CCCCC3)n2)cc1` [Compound 1U, (S)-5-(1-(cyclohexylmethyl)pyrrolidin-2-yl)-3-(3-phenylpropyl)-1,2,4-oxadiazole], which IC50 is on record?
Answer: Its IC50 is less than 10 µM.

Question: `CC(C)(C)OC(=O)N1[C@@H]2CC[C@@H](C2)[C@H]1c1nc(CCc2ccccc2)no1` [Compound 14-1, Tert-butyl (1R,3S,4S)-3-(3-phenethyl-1,2,4-oxadiazol-5-yl)-2-azabicyclo[2.2.1]heptane-2-carboxylate] was tested. Which IC50 did it give?
Answer: The IC50 was less than 10 µM.

Question: How did the IC50 turn out when `COc1ccc(S(=O)(=O)N2CC(CC3CCC3)CC2c2nc(CCCc3ccccc3)no2)cc1` (stereo not shown) [Compound 6AI, 5-(4-(cyclobuthylmethyl)-1-((4-methoxyphenyl)sulfonyl)pyrrolidin-2-yl)-3-(3-phenylpropyl)-1,2,4-oxadiazole] was run?
Answer: Its IC50 is less than 10 µM.

Question: Which IC50 does the source give for `COc1ccc(S(=O)(=O)N2CC3(CC3)C[C@H]2c2nc(CCCc3ccccc3)no2)cc1` [Compound 5AI, (S)-5-(5-((4-methoxyphenyl)sulfonyl)-5-azabicyclo[2.4]heptan-6-yl)-3-(3-phenylpropyl)-1,2,4-oxadiazole] here?
Answer: Its IC50 is 10 to 50 µM.

Question: How did the IC50 turn out when `CN(C)c1cccc2c(S(=O)(=O)N3CC4(CC4)C[C@H]3c3nc(CCCc4ccccc4)no3)cccc12` [Compound 5AL, (S)-N,N-dimethyll-5-((6-(3-(3-phenylpropyl)-1,2,4-oxadiazole-5-yl)-5-azaspiro[2.4]heptan-5-yl)sulfonyl)naphthalen-1-amine] was run?
Answer: Its IC50 is less than 10 µM.

— US20240327392A1, “HETEROCYCLOALKYL-SUBSTITUTED POLYHETEROAZOLE DERIVATIVES AS MEDICAMENTS FOR TREATING AND/OR PREVENTING RS VIRUS INFECTIONS” (ALBIUS SCIENCES ALPHA PRIVATE LIMITED, priority 2021, published 2024)
